Earlier results in publication PMC8619046, “ABCB1 and ABCG2 Control Brain Accumulation and Intestinal Disposition of the Novel ROS1/TRK/ALK Inhibitor Repotrectinib, While OATP1A/1B, ABCG2, and CYP3A Limit Its Oral Availability” (Pharmaceutics, 2021).

Conditions: cited from earlier work; for brain-to-plasma ratio: wild-type mice; for fold increase of brain-to-plasma ratio: combined genetic knockout of Abcb1 and Abcg2, mice

SMILES | fold enhancement of brain-to-plasma ratio (mouse, in vivo) | brain-to-plasma ratio | fold increase of brain-to-plasma ratio
C[C@@H](Oc1cc(-c2cnn(C3CCNCC3)c2)cnc1N)c1c(Cl)ccc(F)c1Cl [crizotinib] | ~ 15 fold | about 0.2 | –
C[C@H]1Oc2cc(cnc2N)-c2c(nn(C)c2C#N)CN(C)C(=O)c2ccc(F)cc21 [lorlatinib] | – | 0.4 | 4 fold
C[C@@H]1CCc2ncc(F)cc2[C@H]2CCCN2c2ccn3ncc(c3n2)C(=O)N1 [selitrectinib] | – | 0.03 | 6 fold
